Results: patent US20170166558A1, “O-GLCNAC TRANSFERASE (OGT) INHIBITORS AND USES THEREOF” (President and Fellows of Harvard College, priority 2014, published 2017)
Like-named read-outs stand apart in the source and are kept apart here.

Molecular target: T1, sOGT (Homo sapiens, UniProt O15294)
T1 sequence (O15294 1-665 isoform O15294-4): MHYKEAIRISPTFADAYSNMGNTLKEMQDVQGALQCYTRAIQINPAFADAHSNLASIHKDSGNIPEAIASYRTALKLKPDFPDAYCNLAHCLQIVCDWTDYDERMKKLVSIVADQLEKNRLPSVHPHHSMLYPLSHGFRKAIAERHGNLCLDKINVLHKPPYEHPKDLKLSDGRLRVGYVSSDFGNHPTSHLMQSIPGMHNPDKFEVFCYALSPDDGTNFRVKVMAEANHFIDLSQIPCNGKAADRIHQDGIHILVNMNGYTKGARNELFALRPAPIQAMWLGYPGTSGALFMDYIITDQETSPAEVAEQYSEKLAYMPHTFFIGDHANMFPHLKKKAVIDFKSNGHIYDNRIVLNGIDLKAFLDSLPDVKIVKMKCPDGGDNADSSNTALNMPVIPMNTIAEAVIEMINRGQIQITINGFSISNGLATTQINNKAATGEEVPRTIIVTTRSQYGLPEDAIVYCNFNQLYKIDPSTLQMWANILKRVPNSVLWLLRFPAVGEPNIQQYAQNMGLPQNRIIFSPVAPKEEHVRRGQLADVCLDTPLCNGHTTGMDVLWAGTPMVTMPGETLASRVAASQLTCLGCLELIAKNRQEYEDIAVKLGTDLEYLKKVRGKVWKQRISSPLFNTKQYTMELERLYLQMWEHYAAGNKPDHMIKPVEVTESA
Experiment: Fluorescence polarization displacement screen with fluorescein-linked UDP-GlcNAc analog
Format: binding
Conditions: for remaining activity at 100 µM: read-out: % OGT activity (100 μM treatment)

**Q.** With `O=C([C@@H](NS(=O)(=O)c1ccc2[nH]c(=O)[nH]c(=O)c2c1)c1ccccc1)N(Cc1ccco1)Cc1cccs1` as the compound, how does the “% OGT activity (100 μM treatment)” value (100 μM treatment) read?
**A.** Its value is “No inhibition”.

**Q.** How did the remaining activity at 100 µM turn out when `O=C([C@@H](NS(=O)(=O)c1ccc2[nH]c(=O)ccc2c1)c1ccccc1)N(Cc1ccco1)Cc1cccs1` was run?
**A.** Its remaining activity at 100 µM is 7%.

**Q.** `O=C([C@H](NS(=O)(=O)c1ccc2[nH]c(=O)ccc2c1)c1ccc(O)cc1)N(Cc1ccco1)Cc1cccs1` was tested. Which remaining activity at 100 µM (100 μM treatment) did it give?
**A.** Its remaining activity at 100 µM is 0.7%.

**Q.** For `O=C([C@H](NS(=O)(=O)c1ccc2[nH]c(=O)[nH]c(=O)c2c1)c1ccccc1)N(Cc1ccco1)Cc1cccs1`, which remaining activity at 100 µM (100 μM treatment) is on record?
**A.** The remaining activity at 100 µM was 68%.

**Q.** How did the remaining activity at 100 µM turn out when `O=C([C@H](NS(=O)(=O)c1ccc2[nH]c(=O)ccc2c1)c1ccccc1)N(Cc1ccco1)Cc1cccs1` was run?
**A.** The remaining activity at 100 µM was 1.73%.

**Q.** `O=C([C@H](NS(=O)(=O)c1ccc2[nH]c(=O)ccc2c1)c1ccc(F)cc1)N(Cc1ccco1)Cc1cccs1` was tested. Which remaining activity at 100 µM (100 μM treatment) did it give?
**A.** Its remaining activity at 100 µM is 5%.

**Q.** `O=C([C@H](NS(=O)(=O)c1ccc2[nH]c(=O)ccc2c1)c1ccc(Cl)cc1)N(Cc1ccco1)Cc1cccs1` was tested. Which remaining activity at 100 µM (100 μM treatment) did it give?
**A.** Its remaining activity at 100 µM is 22%.

**Q.** With `O=C([C@H](NS(=O)(=O)c1ccc2[nH]c(=O)ccc2c1)C1CCCCC1)N(Cc1ccco1)Cc1cccs1` as the compound, how does the remaining activity at 100 µM (100 μM treatment) read?
**A.** Its remaining activity at 100 µM is 22%.

**Q.** Which remaining activity at 100 µM (100 μM treatment) does the source give for `O=C([C@H](NS(=O)(=O)c1ccc2[nH]c(=O)ccc2c1)c1ccccc1Cl)N(Cc1ccco1)Cc1cccs1` here?
**A.** The remaining activity at 100 µM was 4%.

**Q.** How did the remaining activity at 100 µM (100 μM treatment) turn out when `O=C([C@H](NS(=O)(=O)c1ccc2[nH]c(=O)ccc2c1)c1cccs1)N(Cc1ccco1)Cc1cccs1` was run?
**A.** The remaining activity at 100 µM was 7%.

**Q.** With `COc1ccc([C@@H](NS(=O)(=O)c2ccc3[nH]c(=O)ccc3c2)C(=O)N(Cc2ccco2)Cc2cccs2)cc1` as the compound, how does the remaining activity at 100 µM (100 μM treatment) read?
**A.** Its remaining activity at 100 µM is 2.9%.

**Q.** For `O=C([C@H](NS(=O)(=O)c1ccc2[nH]c(=O)ccc2c1)c1cccc(F)c1)N(Cc1ccco1)Cc1cccs1`, which remaining activity at 100 µM (100 μM treatment) is on record?
**A.** The remaining activity at 100 µM was 2.6%.

**Q.** How did the remaining activity at 100 µM (100 μM treatment) turn out when `O=C([C@@H](NS(=O)(=O)c1ccc2[nH]c(=O)ccc2c1)c1ccc(F)cc1)N(Cc1ccco1)Cc1cccs1` was run?
**A.** The remaining activity at 100 µM was 0.9%.

**Q.** Which remaining activity at 100 µM (100 μM treatment) does the source give for `CN1CCN(C(=O)[C@H](NS(=O)(=O)c2ccc3[nH]c(=O)ccc3c2)c2ccccc2)CC1` here?
**A.** Its remaining activity at 100 µM is 47%.

**Q.** How did the remaining activity at 100 µM (100 μM treatment) turn out when `CN(Cc1cccs1)C(=O)[C@H](NS(=O)(=O)c1ccc2[nH]c(=O)ccc2c1)c1ccccc1` was run?
**A.** The remaining activity at 100 µM was 2.5%.

**Q.** With `O=C([C@H](NS(=O)(=O)c1ccc2[nH]c(=O)ccc2c1)c1ccccc1)N1CCOCC1` as the compound, how does the remaining activity at 100 µM (100 μM treatment) read?
**A.** The remaining activity at 100 µM was 47%.

**Q.** For `CCNC(=O)[C@H](NS(=O)(=O)c1ccc2[nH]c(=O)ccc2c1)c1ccccc1`, which remaining activity at 100 µM (100 μM treatment) is on record?
**A.** The remaining activity at 100 µM was 26%.

**Q.** How did the remaining activity at 100 µM (100 μM treatment) turn out when `COc1cccc([C@@H](NS(=O)(=O)c2ccc3[nH]c(=O)ccc3c2)C(=O)N(Cc2ccco2)Cc2cccs2)c1` was run?
**A.** Its remaining activity at 100 µM is 2.5%.

**Q.** For `O=C(NCc1cccs1)[C@H](NS(=O)(=O)c1ccc2[nH]c(=O)ccc2c1)c1ccccc1`, which “% OGT activity (100 μM treatment)” value (100 μM treatment) is on record?
**A.** The value was “No inhibition”.

**Q.** Which remaining activity at 100 µM (100 μM treatment) does the source give for `O=C(NCc1ccco1)[C@H](NS(=O)(=O)c1ccc2[nH]c(=O)ccc2c1)c1ccccc1` here?
**A.** The remaining activity at 100 µM was 64%.

**Q.** Which remaining activity at 100 µM (100 μM treatment) does the source give for `CN(Cc1ccco1)C(=O)[C@H](NS(=O)(=O)c1ccc2[nH]c(=O)ccc2c1)c1ccccc1` here?
**A.** The remaining activity at 100 µM was 5%.

**Q.** With `O=C([C@H](NS(=O)(=O)c1ccc2[nH]c(=O)ccc2c1)c1ccccc1)N1CCCCC1` as the compound, how does the remaining activity at 100 µM (100 μM treatment) read?
**A.** Its remaining activity at 100 µM is 22%.

**Q.** With `CCCC[C@@H](NS(=O)(=O)c1ccc2[nH]c(=O)ccc2c1)C(=O)N(Cc1ccco1)Cc1cccs1` as the compound, how does the remaining activity at 100 µM (100 μM treatment) read?
**A.** The remaining activity at 100 µM was 8%.

**Q.** `O=C(C1c2ccccc2CN1S(=O)(=O)c1ccc2[nH]c(=O)ccc2c1)N(Cc1ccco1)Cc1cccs1` (stereo not shown) [drawing 109] was tested. Which remaining activity at 100 µM (100 μM treatment) did it give?
**A.** The remaining activity at 100 µM was 56%.

**Q.** With `O=C(C1c2ccccc2CCN1S(=O)(=O)c1ccc2[nH]c(=O)ccc2c1)N(Cc1ccco1)Cc1cccs1` (stereo not shown) [drawing 110] as the compound, how does the remaining activity at 100 µM (100 μM treatment) read?
**A.** The remaining activity at 100 µM was 47%.

**Q.** With `O=C(C1c2ccccc2CN1S(=O)(=O)c1ccc2[nH]c(=O)ccc2c1)N(Cc1ccco1)Cc1cccs1` (stereo not shown) [drawing 114] as the compound, how does the “% OGT activity (100 μM treatment)” value (100 μM treatment) read?
**A.** The value was 43%.

**Q.** For `O=C(C1c2ccccc2CCN1S(=O)(=O)c1ccc2[nH]c(=O)ccc2c1)N(Cc1ccco1)Cc1cccs1` (stereo not shown) [drawing 115], which “% OGT activity (100 μM treatment)” value (100 μM treatment) is on record?
**A.** Its value is 65%.

**Q.** For `O=C(C(NS(=O)(=O)c1ccc2[nH]c(=O)ccc2c1)c1ccccc1C(F)(F)F)N(Cc1ccco1)Cc1cccs1` (stereo not shown) [drawing 119], which “% OGT activity (100 μM treatment)” value (100 μM treatment) is on record?
**A.** Its value is 0.7%.

**Q.** Which “% OGT activity (100 μM treatment)” value (100 μM treatment) does the source give for `O=C(C(NS(=O)(=O)c1ccc2[nH]c(=O)ccc2c1)c1ccccc1C(F)(F)F)N(Cc1ccco1)Cc1cccs1` (stereo not shown) [drawing 121] here?
**A.** Its value is 11%.

**Q.** For `O=C(C(NS(=O)(=O)c1ccc2[nH]c(=O)ccc2c1)c1ccc(C(F)(F)F)cc1)N(Cc1ccco1)Cc1cccs1` (stereo not shown) [drawing 122], which “% OGT activity (100 μM treatment)” value (100 μM treatment) is on record?
**A.** The value was 33%.

**Q.** With `O=C(C(NS(=O)(=O)c1ccc2[nH]c(=O)ccc2c1)c1ccccc1C(F)(F)F)N(Cc1ccco1)Cc1cccs1` (stereo not shown) [drawing 125] as the compound, how does the “% OGT activity (100 μM treatment)” value (100 μM treatment) read?
**A.** Its value is 38%.

**Q.** For `O=C(C(NS(=O)(=O)c1ccc2[nH]c(=O)ccc2c1)c1ccc(C(F)(F)F)cc1)N(Cc1ccco1)Cc1cccs1` (stereo not shown) [drawing 126], which “% OGT activity (100 μM treatment)” value (100 μM treatment) is on record?
**A.** Its value is 54%.

**Q.** For `O=C(C(NS(=O)(=O)c1ccc2[nH]c(=O)ccc2c1)c1cccc(C(F)(F)F)c1)N(Cc1ccco1)Cc1cccs1` (stereo not shown) [drawing 127], which “% OGT activity (100 μM treatment)” value (100 μM treatment) is on record?
**A.** Its value is 29%.

**Q.** `O=C(C(NS(=O)(=O)c1ccc2[nH]c(=O)ccc2c1)c1cccc(C(F)(F)F)c1)N(Cc1ccco1)Cc1cccs1` (stereo not shown) [drawing 128] was tested. Which “% OGT activity (100 μM treatment)” value (100 μM treatment) did it give?
**A.** The value was 7.4%.

**Q.** For `O=C(C(NS(=O)(=O)c1ccc2[nH]c(=O)ccc2c1)c1ccccc1F)N(Cc1ccco1)Cc1cccs1` (stereo not shown) [drawing 129], which “% OGT activity (100 μM treatment)” value (100 μM treatment) is on record?
**A.** The value was 0.5%.

**Q.** `Cc1ccc(C(NS(=O)(=O)c2ccc3[nH]c(=O)ccc3c2)C(=O)N(Cc2ccco2)Cc2cccs2)cc1` (stereo not shown) [drawing 130] was tested. Which “% OGT activity (100 μM treatment)” value (100 μM treatment) did it give?
**A.** Its value is 11%.

**Q.** How did the “% OGT activity (100 μM treatment)” value (100 μM treatment) turn out when `Cc1cccc(C(NS(=O)(=O)c2ccc3[nH]c(=O)ccc3c2)C(=O)N(Cc2ccco2)Cc2cccs2)c1` (stereo not shown) [drawing 131] was run?
**A.** Its value is “No inhibition”.

**Q.** For `Cc1ccccc1C(NS(=O)(=O)c1ccc2[nH]c(=O)ccc2c1)C(=O)N(Cc1ccco1)Cc1cccs1` (stereo not shown) [drawing 132], which “% OGT activity (100 μM treatment)” value (100 μM treatment) is on record?
**A.** Its value is 4.5%.

**Q.** Which “% OGT activity (100 μM treatment)” value (100 μM treatment) does the source give for `O=C(C(NS(=O)(=O)c1ccc2[nH]c(=O)ccc2c1)c1ccccc1F)N(Cc1ccco1)Cc1cccs1` (stereo not shown) [drawing 133] here?
**A.** Its value is 24%.

**Q.** How did the “% OGT activity (100 μM treatment)” value (100 μM treatment) turn out when `Cc1ccc(C(NS(=O)(=O)c2ccc3[nH]c(=O)ccc3c2)C(=O)N(Cc2ccco2)Cc2cccs2)cc1` (stereo not shown) [drawing 134] was run?
**A.** Its value is 66%.

**Q.** For `Cc1cccc(C(NS(=O)(=O)c2ccc3[nH]c(=O)ccc3c2)C(=O)N(Cc2ccco2)Cc2cccs2)c1` (stereo not shown) [drawing 135], which “% OGT activity (100 μM treatment)” value (100 μM treatment) is on record?
**A.** The value was “No inhibition”.

**Q.** With `Cc1ccccc1C(NS(=O)(=O)c1ccc2[nH]c(=O)ccc2c1)C(=O)N(Cc1ccco1)Cc1cccs1` (stereo not shown) [drawing 136] as the compound, how does the “% OGT activity (100 μM treatment)” value (100 μM treatment) read?
**A.** Its value is 10%.

**Q.** For `O=C([C@@H](Cc1ccccc1)NS(=O)(=O)c1ccc2[nH]c(=O)ccc2c1)N(Cc1ccco1)Cc1cccs1` [drawing 149], which remaining activity at 100 µM (100 μM treatment) is on record?
**A.** The remaining activity at 100 µM was 53%.
